{"source": "ChEMBL document CHEMBL3751820", "about": "“Synthesis and evaluation of bis-thiazole derivatives as new anticancer agents” (Eur J Med Chem, 2016)", "key": {"[1]": {"assay": "Cytotoxicity against rat 5RP7 cells after 24 hrs by MTT assay", "type": "functional, cell-based", "conditions": "5RP7, 24 h"}, "A549 [2]": {"system": "A549", "assay": "Selectivity index, ratio of IC50 for mouse NIH/3T3 cells to IC50 for human A549 cells", "type": "functional"}, "C6 [3]": {"system": "C6", "assay": "Selectivity index, ratio of IC50 for mouse NIH/3T3 cells to IC50 for rat C6 cells", "type": "functional"}, "Cholinesterase [4]": {"target": "T1, Cholinesterase (Homo sapiens, UniProt P06276)", "T1 sequence (P06276 whole entry)": "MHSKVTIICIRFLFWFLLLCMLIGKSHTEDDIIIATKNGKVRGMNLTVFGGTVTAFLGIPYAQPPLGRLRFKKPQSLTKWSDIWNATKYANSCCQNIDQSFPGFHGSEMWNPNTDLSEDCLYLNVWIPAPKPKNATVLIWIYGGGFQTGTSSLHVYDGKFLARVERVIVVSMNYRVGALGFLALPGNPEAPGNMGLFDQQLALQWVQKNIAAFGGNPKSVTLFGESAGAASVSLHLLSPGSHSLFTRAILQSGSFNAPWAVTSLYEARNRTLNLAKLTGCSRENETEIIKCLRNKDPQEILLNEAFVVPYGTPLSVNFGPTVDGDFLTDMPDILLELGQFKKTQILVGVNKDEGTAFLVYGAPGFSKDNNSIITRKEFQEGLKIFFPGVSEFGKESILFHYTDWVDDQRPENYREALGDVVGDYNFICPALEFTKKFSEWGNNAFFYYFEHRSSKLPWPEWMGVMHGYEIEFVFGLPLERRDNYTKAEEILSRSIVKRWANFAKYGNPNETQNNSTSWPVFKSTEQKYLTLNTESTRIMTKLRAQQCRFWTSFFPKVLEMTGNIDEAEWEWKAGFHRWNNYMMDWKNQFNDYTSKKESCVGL", "assay": "Inhibition of BuChE (unknown origin) using butyrylthiocholine iodide as substrate at 80 ug/ml by Ellman spectrophotometric method"}, "[5]": {"assay": "Cytotoxicity against mouse NIH/3T3 cells after 24 hrs by MTT assay", "type": "cell-based", "conditions": "NIH3T3, 24 h"}, "A549 [6]": {"system": "A549", "assay": "Antiproliferative activity against human A549 cells assessed as inhibition of DNA synthesis after 24 hrs by BrdU incorporation based ELISA", "type": "functional, cell-based"}, "A549 [7]": {"system": "A549", "assay": "Cytotoxicity against human A549 cells after 24 hrs by MTT assay", "type": "functional, cell-based", "conditions": "A549, 24 h"}, "Acetylcholinesterase": {"target": "Acetylcholinesterase (Electrophorus electricus, UniProt O42275)", "sequence (O42275 whole entry)": "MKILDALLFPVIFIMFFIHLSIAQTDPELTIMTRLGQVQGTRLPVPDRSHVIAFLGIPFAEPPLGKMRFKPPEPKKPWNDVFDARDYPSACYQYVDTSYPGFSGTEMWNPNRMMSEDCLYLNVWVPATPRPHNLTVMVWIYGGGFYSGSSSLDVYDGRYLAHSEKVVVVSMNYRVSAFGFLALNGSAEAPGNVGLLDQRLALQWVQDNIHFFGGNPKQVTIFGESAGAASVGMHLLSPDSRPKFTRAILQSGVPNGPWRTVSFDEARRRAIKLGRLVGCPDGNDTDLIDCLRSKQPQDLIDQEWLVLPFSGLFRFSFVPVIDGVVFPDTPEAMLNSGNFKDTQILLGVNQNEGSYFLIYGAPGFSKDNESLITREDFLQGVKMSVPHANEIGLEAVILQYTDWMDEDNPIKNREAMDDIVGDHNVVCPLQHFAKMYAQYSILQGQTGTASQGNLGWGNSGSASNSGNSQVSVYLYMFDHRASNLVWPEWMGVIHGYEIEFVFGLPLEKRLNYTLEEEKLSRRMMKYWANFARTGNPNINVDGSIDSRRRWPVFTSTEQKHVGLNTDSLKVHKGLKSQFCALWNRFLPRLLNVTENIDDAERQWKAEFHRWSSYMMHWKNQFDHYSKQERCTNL", "assay": "Inhibition of electric eel AChE using acetylthiocholine iodide as substrate at by Ellman spectrophotometric method"}, "C6 [8]": {"system": "C6", "assay": "Cytotoxicity against rat C6 cells after 24 hrs by MTT assay", "type": "functional, cell-based", "conditions": "C6, 24 h"}, "C6 [9]": {"system": "C6", "assay": "Antiproliferative activity against rat C6 cells assessed as inhibition of DNA synthesis after 24 hrs by BrdU incorporation based ELISA", "type": "functional, cell-based"}, "Cholinesterase [10]": {"target": "T1, Cholinesterase", "assay": "Inhibition of BuChE (unknown origin) using butyrylthiocholine iodide as substrate by Ellman spectrophotometric method"}}, "note": "Active and inactive are the calls of the source. The calls are words filed in the database; no cut-off is given here.", "data": [{"smiles": "COc1cc(-c2ccc(Nc3nc(-c4ccc(Br)cc4)cs3)c(OC)c2)ccc1Nc1nc(-c2ccc(Br)cc2)cs1", "values": [{"measurement": "IC50", "setting": "[1]", "result": 68.3, "unit": "µg/mL"}, {"measurement": "Ratio IC50", "setting": "A549 [2]", "result": 3.53}, {"measurement": "Ratio IC50", "setting": "C6 [3]", "result": 11.65}, {"measurement": "inhibition", "setting": "Cholinesterase [4]", "result": "inactive"}, {"measurement": "IC50", "setting": "[5]", "result": 132, "unit": "µg/mL"}, {"measurement": "Activity", "setting": "A549 [6]", "result": "Active"}, {"measurement": "IC50", "setting": "A549 [7]", "result": 37.3, "unit": "µg/mL"}, {"measurement": "IC50", "setting": "Acetylcholinesterase", "result": 15.9, "unit": "µM"}, {"measurement": "IC50", "setting": "C6 [8]", "result": 11.3, "unit": "µg/mL"}, {"measurement": "Activity", "setting": "C6 [9]", "result": "inactive"}]}, {"smiles": "COc1cc(-c2ccc(Nc3nc(-c4ccccc4)cs3)c(OC)c2)ccc1Nc1nc(-c2ccccc2)cs1", "values": [{"measurement": "IC50", "setting": "[1]", "result": 28, "unit": "µg/mL"}, {"measurement": "inhibition", "setting": "Cholinesterase [4]", "result": "inactive"}, {"measurement": "IC50", "setting": "[5]", "result": 112, "unit": "µg/mL"}, {"measurement": "IC50", "setting": "A549 [7]", "result": 103, "unit": "µg/mL"}, {"measurement": "IC50", "setting": "Acetylcholinesterase", "result": 16.6, "unit": "µM"}, {"measurement": "IC50", "setting": "C6 [8]", "result": 49.3, "unit": "µg/mL"}]}, {"smiles": "COc1cc(-c2ccc(Nc3nc(-c4ccc([N+](=O)[O-])cc4)cs3)c(OC)c2)ccc1Nc1nc(-c2ccc([N+](=O)[O-])cc2)cs1", "values": [{"measurement": "IC50", "setting": "[1]", "result": 5.83, "unit": "µg/mL"}, {"measurement": "IC50", "setting": "Cholinesterase [10]", "result": "> 123", "unit": "µM"}, {"measurement": "inhibition", "setting": "Cholinesterase [4]", "result": 27.9, "unit": "%"}, {"measurement": "IC50", "setting": "[5]", "result": 147, "unit": "µg/mL"}, {"measurement": "Activity", "setting": "A549 [6]", "result": "Active"}, {"measurement": "IC50", "setting": "A549 [7]", "result": 82.3, "unit": "µg/mL"}, {"measurement": "IC50", "setting": "Acetylcholinesterase", "result": 15.9, "unit": "µM"}, {"measurement": "IC50", "setting": "C6 [8]", "result": 33.3, "unit": "µg/mL"}, {"measurement": "Activity", "setting": "C6 [9]", "result": "inactive"}]}, {"smiles": "COc1cc(-c2ccc(NC(N)=S)c(OC)c2)ccc1NC(N)=S", "values": [{"measurement": "IC50", "setting": "[1]", "result": 25.3, "unit": "µg/mL"}, {"measurement": "IC50", "setting": "Cholinesterase [10]", "result": "> 221", "unit": "µM"}, {"measurement": "inhibition", "setting": "Cholinesterase [4]", "result": 26.7, "unit": "%"}, {"measurement": "IC50", "setting": "[5]", "result": 195, "unit": "µg/mL"}, {"measurement": "IC50", "setting": "A549 [7]", "result": 178, "unit": "µg/mL"}, {"measurement": "IC50", "setting": "Acetylcholinesterase", "result": 57.7, "unit": "µM"}, {"measurement": "IC50", "setting": "C6 [8]", "result": 165, "unit": "µg/mL"}]}, {"smiles": "O=C1c2c(O)ccc(O)c2C(=O)c2c(NCCNCCO)ccc(NCCNCCO)c21", "note": "[MITOXANTRONE]", "values": [{"measurement": "IC50", "setting": "[1]", "result": 0.73, "unit": "µg/mL"}, {"measurement": "IC50", "setting": "A549 [7]", "result": 15.7, "unit": "µg/mL"}]}, {"smiles": "COc1ccc(OC)c(-c2csc(Nc3ccc(-c4ccc(Nc5nc(-c6cc(OC)ccc6OC)cs5)c(OC)c4)cc3OC)n2)c1", "values": [{"measurement": "IC50", "setting": "[1]", "result": 12.3, "unit": "µg/mL"}, {"measurement": "IC50", "setting": "Cholinesterase [10]", "result": 58, "unit": "µM"}, {"measurement": "inhibition", "setting": "Cholinesterase [4]", "result": 56.9, "unit": "%"}, {"measurement": "IC50", "setting": "[5]", "result": 170, "unit": "µg/mL"}, {"measurement": "IC50", "setting": "A549 [7]", "result": 125, "unit": "µg/mL"}, {"measurement": "IC50", "setting": "Acetylcholinesterase", "result": 55.7, "unit": "µM"}, {"measurement": "IC50", "setting": "C6 [8]", "result": 103, "unit": "µg/mL"}]}, {"smiles": "COc1cc(-c2ccc(Nc3nc(-c4ccc(Cl)c(Cl)c4)cs3)c(OC)c2)ccc1Nc1nc(-c2ccc(Cl)c(Cl)c2)cs1", "values": [{"measurement": "IC50", "setting": "[1]", "result": 207, "unit": "µg/mL"}, {"measurement": "IC50", "setting": "Cholinesterase [10]", "result": 110, "unit": "µM"}, {"measurement": "inhibition", "setting": "Cholinesterase [4]", "result": 53.5, "unit": "%"}, {"measurement": "IC50", "setting": "[5]", "result": "> 200", "unit": "µg/mL"}, {"measurement": "IC50", "setting": "A549 [7]", "result": 147, "unit": "µg/mL"}, {"measurement": "IC50", "setting": "Acetylcholinesterase", "result": 16.3, "unit": "µM"}, {"measurement": "IC50", "setting": "C6 [8]", "result": 90, "unit": "µg/mL"}]}, {"smiles": "COc1ccc(-c2csc(Nc3ccc(-c4ccc(Nc5nc(-c6ccc(OC)cc6)cs5)c(OC)c4)cc3OC)n2)cc1", "values": [{"measurement": "IC50", "setting": "[1]", "result": 13.3, "unit": "µg/mL"}, {"measurement": "IC50", "setting": "Cholinesterase [10]", "result": 107, "unit": "µM"}, {"measurement": "inhibition", "setting": "Cholinesterase [4]", "result": 74.5, "unit": "%"}, {"measurement": "IC50", "setting": "[5]", "result": 98.3, "unit": "µg/mL"}, {"measurement": "Activity", "setting": "A549 [6]", "result": "Active"}, {"measurement": "IC50", "setting": "A549 [7]", "result": 58.3, "unit": "µg/mL"}, {"measurement": "IC50", "setting": "Acetylcholinesterase", "result": 12.4, "unit": "µM"}, {"measurement": "IC50", "setting": "C6 [8]", "result": 28.7, "unit": "µg/mL"}, {"measurement": "Activity", "setting": "C6 [9]", "result": "inactive"}]}, {"smiles": "COc1cc(-c2ccc(Nc3nc(-c4ccc(C)cc4)cs3)c(OC)c2)ccc1Nc1nc(-c2ccc(C)cc2)cs1", "values": [{"measurement": "IC50", "setting": "[1]", "result": "> 500", "unit": "µg/mL"}, {"measurement": "IC50", "setting": "Cholinesterase [10]", "result": "> 135", "unit": "µM"}, {"measurement": "inhibition", "setting": "Cholinesterase [4]", "result": 40.9, "unit": "%"}, {"measurement": "IC50", "setting": "[5]", "result": 153, "unit": "µg/mL"}, {"measurement": "Activity", "setting": "A549 [6]", "result": "Active"}, {"measurement": "IC50", "setting": "A549 [7]", "result": 98.3, "unit": "µg/mL"}, {"measurement": "IC50", "setting": "Acetylcholinesterase", "result": 45.8, "unit": "µM"}, {"measurement": "IC50", "setting": "C6 [8]", "result": 21, "unit": "µg/mL"}, {"measurement": "Activity", "setting": "C6 [9]", "result": "inactive"}]}, {"smiles": "COc1cc(-c2ccc(Nc3nc(-c4ccc(Cl)cc4)cs3)c(OC)c2)ccc1Nc1nc(-c2ccc(Cl)cc2)cs1", "values": [{"measurement": "IC50", "setting": "[1]", "result": 207, "unit": "µg/mL"}, {"measurement": "IC50", "setting": "Cholinesterase [10]", "result": "> 127", "unit": "µM"}, {"measurement": "inhibition", "setting": "Cholinesterase [4]", "result": 39.1, "unit": "%"}, {"measurement": "IC50", "setting": "[5]", "result": 112, "unit": "µg/mL"}, {"measurement": "IC50", "setting": "A549 [7]", "result": 105, "unit": "µg/mL"}, {"measurement": "IC50", "setting": "Acetylcholinesterase", "result": 42.7, "unit": "µM"}, {"measurement": "IC50", "setting": "C6 [8]", "result": 147, "unit": "µg/mL"}]}, {"smiles": "COc1cc(-c2ccc(Nc3nc(-c4ccc(Cl)cc4Cl)cs3)c(OC)c2)ccc1Nc1nc(-c2ccc(Cl)cc2Cl)cs1", "values": [{"measurement": "IC50", "setting": "[1]", "result": "> 500", "unit": "µg/mL"}, {"measurement": "IC50", "setting": "Cholinesterase [10]", "result": 47.6, "unit": "µM"}, {"measurement": "inhibition", "setting": "Cholinesterase [4]", "result": 84.4, "unit": "%"}, {"measurement": "IC50", "setting": "[5]", "result": "> 200", "unit": "µg/mL"}, {"measurement": "IC50", "setting": "A549 [7]", "result": 133, "unit": "µg/mL"}, {"measurement": "IC50", "setting": "Acetylcholinesterase", "result": 8.37, "unit": "µM"}, {"measurement": "IC50", "setting": "C6 [8]", "result": 80, "unit": "µg/mL"}]}, {"smiles": "COc1cc(-c2ccc(Nc3nc(-c4cc(Cl)ccc4Cl)cs3)c(OC)c2)ccc1Nc1nc(-c2cc(Cl)ccc2Cl)cs1", "values": [{"measurement": "IC50", "setting": "[1]", "result": 54.3, "unit": "µg/mL"}, {"measurement": "IC50", "setting": "Cholinesterase [10]", "result": "> 114", "unit": "µM"}, {"measurement": "inhibition", "setting": "Cholinesterase [4]", "result": 36.2, "unit": "%"}, {"measurement": "IC50", "setting": "[5]", "result": 162, "unit": "µg/mL"}, {"measurement": "IC50", "setting": "A549 [7]", "result": 102, "unit": "µg/mL"}, {"measurement": "IC50", "setting": "Acetylcholinesterase", "result": 97.1, "unit": "µM"}, {"measurement": "IC50", "setting": "C6 [8]", "result": 38.3, "unit": "µg/mL"}]}]}
